# No end group written: not given here.
# Tested on: Autologous DCs pulsed with the IsoMSLN peptide
# Test: DC-T-cell co-culture immunogenicity, 4-hour Calcein-AM-release cytotoxicity assay
# Assay type: cell-based
# Settings: E/T ratio 10:1 and 5:1; peripheral blood mononuclear cells of a healthy individual; control unrelated HIV peptide; FIG. 5
# Procedure: The peptide unique to the isoform variant (i.e., PQAPRRPL (SEQ ID NO: 19)) was then tested for immunogenicity using a dendritic cell (DC)- T-cell co-culture system as previously described (Chiriva-Internati et al. Blood. 2002 Aug. 1;100(3):961-5). A standard 4-hour Calcein-AM-release assay was performed to determine the cytotoxic activity of the IsoMSLN peptide stimulated T cells. Autologous DCs pulsed with the IsoMSLN peptide or with an unrelated peptide (derived from HIV), were used as target cells (at an effector-target cell [E/T] ratio of 10:1 and 5:1).
sequence,measurement,value
PQAPRRPL [PQAPRRPL],"immunogenicity (cytotoxic activity of peptide stimulated T cells, percent specific killing)",immunogenic
